Test results as given in PubChem BioAssay AID2060499 (Molecular Pharmacology Branch, DTP, NCI, 2025).

Test system: 777334-354-R2-J4-PDC tumor spheroids with HUVEC/MSC, viability
Assay: Anticancer human tumor 777334-354-R2-J4-PDC patient-derived pancreatic adenocarcinoma cell line growth inhibition [GQUAD]
Conditions: for IC50: curve of first compound; for viability, T/C: stronger effect = lower value
In short: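 Viability of tumor cells grown as complex spheroids with endothelial and stromal cells, exposed to drug combinations. Top concentration at or near clinical Cmax (else 10 microM), diluted in half-log increments.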

[1] = second compound 0.0316 µM, first compound 0.0316 µM
[2] = second compound 0.0316 µM, first compound 0.1 µM
[3] = second compound 0.0316 µM, first compound 0.316 µM
[4] = second compound 0.0316 µM, first compound 1 µM
[5] = second compound 0.0316 µM, first compound 3.16 µM
[6] = second compound 0.0316 µM, first compound 10 µM
[7] = second compound 0.1 µM, first compound 0.0316 µM
[8] = second compound 0.1 µM, first compound 0.1 µM
[9] = second compound 0.1 µM, first compound 0.316 µM
[10] = second compound 0.1 µM, first compound 1 µM
[11] = second compound 0.1 µM, first compound 3.16 µM
[12] = second compound 0.1 µM, first compound 10 µM
[13] = second compound 0.316 µM, first compound 0.0316 µM
[14] = second compound 0.316 µM, first compound 0.1 µM
[15] = second compound 0.316 µM, first compound 0.316 µM
[16] = second compound 0.316 µM, first compound 1 µM
[17] = second compound 0.316 µM, first compound 3.16 µM
[18] = second compound 0.316 µM, first compound 10 µM
[19] = second compound 1 µM, first compound 0.0316 µM
[20] = second compound 1 µM, first compound 0.1 µM
[21] = second compound 1 µM, first compound 0.316 µM
[22] = second compound 1 µM, first compound 1 µM
[23] = second compound 1 µM, first compound 3.16 µM
[24] = second compound 1 µM, first compound 10 µM
[25] = second compound 3.16 µM, first compound 0.0316 µM
[26] = second compound 3.16 µM, first compound 0.1 µM
[27] = second compound 3.16 µM, first compound 0.316 µM
[28] = second compound 3.16 µM, first compound 1 µM
[29] = second compound 3.16 µM, first compound 3.16 µM
[30] = second compound 3.16 µM, first compound 10 µM
[31] = second compound 10 µM, first compound 0.0316 µM
[32] = second compound 10 µM, first compound 0.1 µM
[33] = second compound 10 µM, first compound 0.316 µM
[34] = second compound 10 µM, first compound 1 µM
[35] = second compound 10 µM, first compound 3.16 µM
[36] = second compound 10 µM, first compound 10 µM
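Note: spheroids exposed to compounds for 7 days before readout.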

For `O=C(c1cc(Cc2n[nH]c(=O)c3ccccc23)ccc1F)N1CCN(C(=O)C2CC2)CC1` + Cc1cnc(CNC(=O)c2c(=O)c3ccc(N4CCCN(C)CC4)nc3n3c2sc2ccccc23)cn1, the IC50 (second compound 0.0316 µM) was > 10000 nM, the IC50 (second compound 0.1 µM) was > 10000 nM and the IC50 (second compound 0.316 µM) was > 10000 nM. For the same molecule, the IC50 (second compound 1 µM) was > 10000 nM, the IC50 (second compound 3.16 µM) was > 10000 nM and the IC50 (second compound 10 µM) was > 10000 nM. For the same molecule, the viability, T/C [1] was 85.9%, the viability, T/C [2] was 94.2% and the viability, T/C [3] was 96.6%. For the same molecule, the viability, T/C [4] was 92%, the viability, T/C [5] was 90.6% and the viability, T/C [6] was 75.7%. For the same molecule, the viability, T/C [7] was 88.9%, the viability, T/C [8] was 88.2% and the viability, T/C [9] was 91.8%. It also gave a viability, T/C [10] of 88%, a viability, T/C [11] of 76.7% and a viability, T/C [12] of 70.3%. It also gave a viability, T/C [13] of 79.9%, a viability, T/C [14] of 76.5% and a viability, T/C [15] of 69.7%. For the same molecule, the viability, T/C [16] was 75.1%, the viability, T/C [17] was 74.3% and the viability, T/C [18] was 64.9%. For the same molecule, the viability, T/C [19] was 73.8%, the viability, T/C [20] was 75.6% and the viability, T/C [21] was 76.2%. It also gave a viability, T/C [22] of 68.8%, a viability, T/C [23] of 69.5% and a viability, T/C [24] of 60.4%. For the same molecule, the viability, T/C [25] was 56.5%, the viability, T/C [26] was 55.9% and the viability, T/C [27] was 63%. For the same molecule, the viability, T/C [28] was 64.2%, the viability, T/C [29] was 64.9% and the viability, T/C [30] was 56.2%. The viability, T/C [31] was 61.5%, the viability, T/C [32] was 54.2% and the viability, T/C [33] was 51.9%. The viability, T/C [34] was 55.8%, the viability, T/C [35] was 61.9% and the viability, T/C [36] was 47.7%.
With `CC1COCCN1c1cc(C2(S(C)(=N)=O)CC2)nc(-c2ccnc3[nH]ccc23)n1` (stereo unspecified) + Cc1[nH]c2ccc(F)cc2c1-c1nc2c3cccnc3c3ncccc3c2[nH]1 the IC50 (second compound 0.0316 µM) was > 10000 nM, the IC50 (second compound 0.1 µM) was > 10000 nM and the IC50 (second compound 0.316 µM) was > 10000 nM. The IC50 (second compound 1 µM) was 7070 nM, the IC50 (second compound 3.16 µM) was < 31.6 nM and the IC50 (second compound 10 µM) was < 31.6 nM. For the same molecule, the viability, T/C [1] was 109%, the viability, T/C [2] was 98.9% and the viability, T/C [3] was 108%. The viability, T/C [4] was 100%, the viability, T/C [5] was 87.7% and the viability, T/C [6] was 62.2%. It also gave a viability, T/C [7] of 113%, a viability, T/C [8] of 92.7% and a viability, T/C [9] of 118%. It also gave a viability, T/C [10] of 85.8%, a viability, T/C [11] of 94.5% and a viability, T/C [12] of 74.8%. The viability, T/C [13] was 94.8%, the viability, T/C [14] was 97.7% and the viability, T/C [15] was 88.3%. For the same molecule, the viability, T/C [16] was 96.2%, the viability, T/C [17] was 89.9% and the viability, T/C [18] was 56%. For the same molecule, the viability, T/C [19] was 88.7%, the viability, T/C [20] was 93.8% and the viability, T/C [21] was 87.1%. The viability, T/C [22] was 75.5%, the viability, T/C [23] was 67.9% and the viability, T/C [24] was 42.7%. For the same molecule, the viability, T/C [25] was 41.8%, the viability, T/C [26] was 27.1% and the viability, T/C [27] was 35%. For the same molecule, the viability, T/C [28] was 22.8%, the viability, T/C [29] was 25.8% and the viability, T/C [30] was 12%. It also gave a viability, T/C [31] of 36%, a viability, T/C [32] of 29.2% and a viability, T/C [33] of 29.6%. The viability, T/C [34] was 18.9%, the viability, T/C [35] was 20.7% and the viability, T/C [36] was 11.1%.
For `CC1COCCN1c1cc(-c2ccnn2C)c2ccnc(-c3ccn[nH]3)c2n1` (stereo unspecified) + CN(C)c1ccc(Nc2c3ccc(NC(=O)CCN4CCCC4)cc3nc3cc(NC(=O)CCN4CCCC4)ccc23)cc1, the IC50 (second compound 0.0316 µM) was 1270 nM, the IC50 (second compound 0.1 µM) was 1060 nM and the IC50 (second compound 0.316 µM) was 789 nM. For the same molecule, the IC50 (second compound 1 µM) was 654 nM, the IC50 (second compound 3.16 µM) was 590 nM and the IC50 (second compound 10 µM) was 555 nM. It also gave a viability, T/C [1] of 103%, a viability, T/C [2] of 84.2% and a viability, T/C [3] of 61.7%. The viability, T/C [4] was 53.9%, the viability, T/C [5] was 44.4% and the viability, T/C [6] was 29%. For the same molecule, the viability, T/C [7] was 106%, the viability, T/C [8] was 77% and the viability, T/C [9] was 66%. For the same molecule, the viability, T/C [10] was 53.5%, the viability, T/C [11] was 40.1% and the viability, T/C [12] was 30.6%. The viability, T/C [13] was 93.9%, the viability, T/C [14] was 78% and the viability, T/C [15] was 59.4%. It also gave a viability, T/C [16] of 46.6%, a viability, T/C [17] of 38.4% and a viability, T/C [18] of 27.5%. The viability, T/C [19] was 90.8%, the viability, T/C [20] was 77.1% and the viability, T/C [21] was 51.7%. For the same molecule, the viability, T/C [22] was 48.2%, the viability, T/C [23] was 37.2% and the viability, T/C [24] was 27.2%. For the same molecule, the viability, T/C [25] was 87.4%, the viability, T/C [26] was 65.2% and the viability, T/C [27] was 53.9%. It also gave a viability, T/C [28] of 46.9%, a viability, T/C [29] of 38.5% and a viability, T/C [30] of 22.4%. It also gave a viability, T/C [31] of 77.2%, a viability, T/C [32] of 66.6% and a viability, T/C [33] of 57.1%. It also gave a viability, T/C [34] of 42.1%, a viability, T/C [35] of 32.4% and a viability, T/C [36] of 17.7%.
